In US20250188085A1, “COMPOSITIONS AND METHODS FOR INHIBITION OF RAS” (THERAS, INC., priority 2022, published 2025):
Where two headings read alike, the source gives them in different places.

Experiments:
[1] = target: T1, GTP-loaded KRAS4b (amino acids 1-169) G12C/C118S protein (Homo sapiens, UniProt P01116, C118S/G12C); assay: Covalent cysteine 12 modification by MALDI-TOF MS, GTP-loaded KRAS G12C; assay type: binding; conditions: 15 minutes reaction time point
T1 construct: KRAS4b (amino acids 1-169) G12C/C118S protein; made in house
How it was run: (§1)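 KRAS4b 1-169 G12C/C118S loaded with GDP, GppNHp or GTP was used at 1 μM in 20 mM HEPES, 150 mM NaCl, 1 mM MgCl2, pH 7.3, and incubated with compound (5 mM DMSO stock) at room temperature in the dark. % modification at 15 min is adduct peak height over total protein peak heights by linear-mode MALDI-TOF.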

[2] = target: T2, Avi-KRAS G12C (1-169) GppNHp/RAF1 RBD-3×FLAG (52-151) (Homo sapiens, UniProt P01116, G12C); assay: Raf1 RBD-KRAS G12C-GppNHp disruption (protein:protein interaction HTRF assay); assay type: biochemical
T2 construct: Avi-KRAS G12C (1-169) GppNHp/RAF1 RBD-3×FLAG (52-151)
How it was run: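 HTRF measuring disruption of 50 nM Avi-KRAS G12C (1-169) loaded with GppNHp binding RAF1 RBD-3×FLAG (52-151), in pH 7.5 Tris buffer with 5 mM MgCl2, 0.1% BSA, 10% DMSO. KRAS preincubated with compound 1 h, then RBD 1 h, then detection reagents 1 h, all at room temperature. Compound titration 30-0.02 μM; activity expressed as percent of DMSO control.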

[3] = target: T3, GppNHp-loaded KRAS4b (amino acids 1-169) G12C/C118S protein (Homo sapiens, UniProt P01116, C118S/G12C); assay: Covalent cysteine 12 modification by MALDI-TOF MS, GppNHp-loaded KRAS G12C; assay type: binding; conditions: 15 minutes reaction time point
T3 construct: KRAS4b (amino acids 1-169) G12C/C118S protein; made in house
How it was run: as §1

pERK in NCI-H358 cells = assay: Cell-based pERK HTRF assay; conditions: 30 min incubation, read-out: pERK in NCI-H358 cell inhibition IC50
How it was run: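 Cells seeded at 4×10^4/well in RPMI with 10% FBS, then next day treated for 30 min with a 9-point, 3-fold series from 75 μM top concentration at 0.25% DMSO. Lysates were read for pERK by HTRF (d2/Eu cryptate antibodies) after 4–24 h at room temperature, emission at 615 nm.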

[4] = target: T4, GDP-loaded KRAS4b (amino acids 1-169) G12C/C118S protein (Homo sapiens, UniProt P01116, C118S/G12C); assay: Covalent cysteine 12 modification by MALDI-TOF MS, GDP-loaded KRAS G12C; assay type: binding; conditions: 15 minutes reaction time point
T4 construct: KRAS4b (amino acids 1-169) G12C/C118S protein; made in house
How it was run: as §1

Row | SMILES | GTP-KRAS G12C percent of modification [1] | IC50 [2] [nM] | GppNHp-KRAS G12C percent of modification [3] | IC50 (pERK in NCI-H358 cells; Homo sapiens, NCI-H358, 0.5 h) [nM] | GDP-KRAS G12C percent of modification [4] | IC50 (pERK in NCI-H358 cells) [nM]
1 | C=CC(=O)N1CC[C@@H](Oc2nc(OC[C@@]34CCCN3C[C@H](F)C4)nc3c(F)c(-c4ccc(F)c5sc(N)c(C#N)c45)c(Cl)cc23)[C@H]1C [Compound 94] | B (50≤percent of modification <70%) | ≤ 500 | A (percent of modification ≥70%) | ≤ 100 | A (percent of modification ≥70%) | –
2 | C=CC(=O)N1C[C@H](Oc2nc(OC[C@@]34CCCN3C[C@H](F)C4)nc3c(F)c(-c4ccc(F)c5sc(N)c(C#N)c45)ccc23)[C@@H](F)C1 [Compound 77] | A (percent of modification ≥70%) | ≤ 500 | A (percent of modification ≥70%) | ≤ 100 | A (percent of modification ≥70%) | –
3 | C=CC(=O)N1CC[C@@H](Oc2nc(OC[C@@]34CCCN3C[C@H](F)C4)nc3c(F)c(-c4ccc(F)c5sc(N)c(C#N)c45)c(C(F)(F)F)cc23)[C@H]1C [Compound 62, 4-(4-(((2R,3R)-1-acryloyl-2-methylpyrrolidin-3-yl)oxy)-8-fluoro-2-(((2R,7aS)-2-fluorotetrahydro-1H-pyrrolizin-7a (5H)-yl)methoxy)-6-(trifluoromethyl)quinazolin-7-yl)-2-amino-7-fluorobenzo[b]thiophene-3-carbonitrile] | C (10%≤modification <50%) | ≤ 500 | B (50≤percent of modification <70%) | ≤ 100 | B (50≤percent of modification <70%) | –
4 | C=CC(=O)N1CC[C@@H](Oc2nc(OCC34CCCN3CCC4)nc3c(F)c(-c4ccc(F)c5sc(N)c(C#N)c45)c(C(F)(F)F)cc23)[C@H]1C [Compound 100] | C (10%≤modification <50%) | ≤ 500 | C (10%≤modification <50%) | 100 to 1000 | B (50≤percent of modification <70%) | –
5 | C=CC(=O)N1CC[C@@H](Oc2nc(OC[C@@]34CCCN3C[C@H](F)C4)nc3c(Cl)c(-c4ccc(F)c5sc(N)c(C#N)c45)ncc23)[C@H]1C [Compound 106, 4-(4-(((2R,3R)-1-acryloyl-2-methylpyrrolidin-3-yl)oxy)-8-chloro-2-(((2R,7aS)-2-fluorotetrahydro-1H-pyrrolizin-7a (5H)-yl)methoxy)pyrido[4,3-d]pyrimidin-7-yl)-2-amino-7-fluorobenzo[b]thiophene-3-carbonitrile] | A (percent of modification ≥70%) | ≤ 500 | A (percent of modification ≥70%) | ≤ 100 | A (percent of modification ≥70%) | –

Other lines, results leading:

Row | GTP-KRAS G12C percent of modification [1] | IC50 [2] [nM] | GppNHp-KRAS G12C percent of modification [3] | IC50 (pERK in NCI-H358 cells; Homo sapiens, NCI-H358, 0.5 h) [nM] | GDP-KRAS G12C percent of modification [4] | IC50 (pERK in NCI-H358 cells) [nM] | SMILES
6 | D (percent of modification <10%) | 5000 to 20000 | D (percent of modification <10%) | – | D (percent of modification <10%) | 100 to 1000 | C=CC(=O)N1CC[C@@H](Oc2nc(OC[C@@]34CCCN3C[C@H](F)C4)nc3c(F)c(-c4ccc(F)c5sc(N)c(C#N)c45)c(C(F)(F)F)cc23)[C@H]1COC (atropisomer, axis not shown) [Compound 96]
7 | C (10%≤modification <50%) | ≤ 500 | A (percent of modification ≥70%) | ≤ 100 | A (percent of modification ≥70%) | – | C=CC(=O)N1CC[C@@H](Oc2nc(OC[C@@]34CCCN3C[C@H](F)C4)nc3cc(-c4ccc(F)c5sc(N)c(C#N)c45)c(C#N)cc23)[C@H]1COC [Compound 112]
8 | C (10%≤modification <50%) | ≤ 500 | B (50≤percent of modification <70%) | ≤ 100 | A (percent of modification ≥70%) | – | C=CC(=O)N1CC[C@@H](Oc2nc(OC[C@@]34CCCN3C[C@H](F)C4)nc3cc(-c4ccc(F)c5sc(N)c(C#N)c45)c(C(F)(F)F)nc23)[C@H]1C [Compound 91]
